Measurements published in DBAASP.
In brackets after ≈: the same amount, converted by molar mass. Several values for one entry are separate records, joined by “and”; a condition that tells them apart may be missing. Equal entries are not always repeated. Blank lines part the entries; values can stand above or below the compound they belong to.

Legend:
Experiment in all cases: ≥ marks a high value that may be exact or a test limit, other limits are often not marked, values filed in µg/mL are converted to µM
Bacillus megaterium Bm11 = test system: Bacillus megaterium Bm11
[1] = test system: Shigella flexneri ATCC 203
[2] = test system: Proteus vulgaris OX19 ATCC 6380
Escherichia coli D21 = test system: Escherichia coli D21
[3] = test system: Staphylococcus aureus JC-1
[4] = test system: Pseudomonas aeruginosa OT97
Micrococcus luteus Ml11 = test system: Micrococcus luteus Ml11
[5] = test system: Bacillus subtilis ATCC 6633
[6] = test system: Pseudomonas aeruginosa PAK
Escherichia coli W3110 = test system: Escherichia coli W3110
[7] = test system: Streptococcus sanguinis NY101
[8] = test system: Streptococcus sobrinus ATCC 33478
Staphylococcus aureus = test system: Staphylococcus aureus
Enterococcus faecalis = test system: Enterococcus faecalis
[9] = test system: Streptococcus mutans UA159
[10] = test system: Staphylococcus aureus ST1065
[11] = test system: Staphylococcus aureus ATCC 25923
[12] = test system: Legionella feeleii ATCC 35072
[13] = test system: Staphylococcus aureus ATCC 43300
Listeria ivanovii = test system: Listeria ivanovii
Escherichia coli ML-35p = test system: Escherichia coli ML-35p
[14] = test system: Acinetobacter baumannii ATCC 19606
[15] = test system: Klebsiella pneumoniae ATCC 13883
[16] = test system: Escherichia coli ATCC 35218
[17] = test system: Enterococcus faecalis ATCC 29212
[18] = test system: Streptococcus pyogenes ATCC 19615
[19] = test system: Legionella longbeachae ATCC 33484
Helicobacter pylori = test system: Helicobacter pylori
Saccharomyces cerevisiae = test system: Saccharomyces cerevisiae
[20] = test system: Legionella pneumophila Paris
[21] = test system: Legionella pneumophila ATCC 33155
[22] = test system: Escherichia coli ATCC 25922
Bacillus megaterium = test system: Bacillus megaterium
[23] = test system: Candida albicans ATCC 90028
[24] = test system: Staphylococcus aureus ATCC BAA-44
[25] = test system: Pseudomonas aeruginosa ATCC 27853
[26] = test system: Salmonella enterica subsp. enterica serovar Enteritidis
Escherichia coli LEC001 = test system: Escherichia coli LEC001
[27] = test system: Staphylococcus aureus ATCC 9144
[28] = test system: Pseudomonas aeruginosa PAO1
[29] = test system: Klebsiella pneumoniae NCTC 13368
[30] = test system: Staphylococcus aureus NCTC 13616
[31] = test system: Pseudomonas aeruginosa NCTC 13437
Escherichia coli = test system: Escherichia coli
[32] = test system: Acinetobacter baumannii AYE
Klebsiella pneumoniae M6 = test system: Klebsiella pneumoniae M6
[33] = test system: Acinetobacter baumannii ATCC 17978
[34] = test system: Staphylococcus aureus USA 300
[35] = test system: Escherichia coli NCTC 12923
Escherichia coli HB101 = test system: Escherichia coli HB101
[36] = test system: Corynebacterium glutamicum ATCC 13032
[37] = test system: Vibrio anguillarum FT1801

SMILES: CC[C@H](C)[C@H](NC(=O)[C@H](Cc1ccccc1)NC(=O)[C@H](Cc1cnc[nH]1)NC(=O)[C@H](CCCCN)NC(=O)[C@@H](NC(=O)[C@H](Cc1ccccc1)NC(=O)[C@@H](NC(=O)[C@H](C)NC(=O)[C@H](CO)NC(=O)[C@H](Cc1ccccc1)NC(=O)[C@H](Cc1cnc[nH]1)NC(=O)[C@H](CC(C)C)NC(=O)[C@H](Cc1cnc[nH]1)NC(=O)[C@H](Cc1ccccc1)NC(=O)[C@H](Cc1cnc[nH]1)NC(=O)[C@@H](N)Cc1ccccc1)[C@@H](C)O)[C@@H](C)CC)C(=O)N[C@@H](Cc1cnc[nH]1)C(=O)N[C@@H](CCCN=C(N)N)C(=O)N[C@@H](Cc1ccccc1)C(N)=O [FHFHLHFSATFIKHFIHRF]
- MIC [6]: ≥ 50.6 µM
- MIC (Escherichia coli W3110): ≥ 50.6 µM
- MIC [7]: 25.3 µM (≈ 62.5 µg/mL)
- MIC [8]: ≥ 101 µM
- MIC (Staphylococcus aureus): 50.6 µM (≈ 125 µg/mL)
- MIC (Enterococcus faecalis): 25.3 µM (≈ 62.5 µg/mL)
- MIC [9]: 6.48 µM (≈ 16 µg/mL)

SMILES: CC[C@H](C)[C@H](NC(=O)CNC(=O)[C@H](CO)NC(=O)[C@H](CC(C)C)NC(=O)[C@@H](N)Cc1ccccc1)C(=O)N[C@H](C(=O)NCC(=O)N[C@@H](CCSC)C(=O)N[C@@H](CC(C)C)C(=O)NCC(=O)N[C@@H](CCCCN)C(=O)N[C@@H](CC(C)C)C(=O)N[C@@H](Cc1ccccc1)C(=O)O)C(C)C [FLSGIVGMLGKLF]
- MIC [10]: 6 µM (≈ 8.29 µg/mL)
- MIC [11]: 3 µM (≈ 4.15 µg/mL)
- MIC [12]: 1.56 µM (≈ 2.16 µg/mL)
- MIC [13]: 6 µM (≈ 8.29 µg/mL)
- MIC (Listeria ivanovii): 6 µM (≈ 8.29 µg/mL)
- MIC (Escherichia coli ML-35p): 12 µM (≈ 16.6 µg/mL)
- MIC [14]: 6 µM (≈ 8.29 µg/mL)
- MIC [15]: 12 µM (≈ 16.6 µg/mL)
- MIC [16]: 10 µM (≈ 13.8 µg/mL)
- MIC [17]: 11 µM (≈ 15.1 µg/mL)
- MIC [18]: 6 µM (≈ 8.29 µg/mL)
- MIC [19]: 1.56 µM (≈ 2.16 µg/mL)
- MIC (Helicobacter pylori): 17.7 µM (≈ 24.4 µg/mL)
- MIC (Saccharomyces cerevisiae): 8 µM and 12 µM
- MIC [20]: 1.56 µM (≈ 2.16 µg/mL)
- MIC [21]: 3.12 µM (≈ 4.31 µg/mL)
- MIC [22]: 10 µM (≈ 13.8 µg/mL)
- MIC (Bacillus megaterium): 2 µM (≈ 2.76 µg/mL)
- MIC [23]: 16 µM and 25 µM
- MIC [24]: 6 µM (≈ 8.29 µg/mL)
- MIC [25]: 31 µM and 50 µM
- MIC [26]: 25 µM (≈ 34.5 µg/mL)

SMILES: CC[C@H](C)[C@H](NC(=O)[C@@H]1CCCN1C(=O)[C@H](CCCCN)NC(=O)[C@@H]1CCCN1C(=O)[C@H](CCCN=C(N)N)NC(=O)CNC(=O)[C@@H]1CCCN1C(=O)[C@H](Cc1ccccc1)NC(=O)[C@@H]1CCCN1C(=O)[C@H](CCCN=C(N)N)NC(=O)[C@@H]1CCCN1C(=O)[C@H](CCCN=C(N)N)NC(=O)CNC(=O)[C@@H]1CCCN1C(=O)[C@H](CO)NC(=O)[C@@H]1CCCN1C(=O)[C@H](Cc1c[nH]c2ccccc12)NC(=O)[C@H](CCCN=C(N)N)NC(=O)[C@@H](N)CO)C(=O)N[C@@H](Cc1ccccc1)C(=O)N[C@@H](CCCN=C(N)N)C(=O)N1CCC[C@H]1C(=O)N[C@@H](CCCN=C(N)N)C(=O)N1CCC[C@H]1C(=O)N[C@H]1CSSC[C@@H](C(=O)N[C@@H](CC(=O)O)C(=O)N[C@@H](CCCN=C(N)N)C(=O)N[C@@H](Cc2c[nH]c3ccccc23)C(=O)O)NC(=O)[C@@H]2CCCN2C(=O)[C@@H]2CSSC[C@H](NC(=O)[C@H](CC(N)=O)NC1=O)C(=O)N[C@@H](Cc1ccc(O)cc1)C(=O)N[C@@H](C)C(=O)N1CCC[C@H]1C(=O)N1CCC[C@H]1C(=O)N2 [SRWPSPGRPRPFPGRPKPIFRPRPCNCYAPPCPCDRW]
- MIC (Escherichia coli HB101): 6.25 µM (≈ 27.2 µg/mL)
- MIC [27]: ≥ 50 µM
- MIC [36]: 0.8 µM (≈ 3.48 µg/mL)
- MIC [22]: 12.5 µM (≈ 54.3 µg/mL)
- MIC [37]: 6.3 µM (≈ 27.4 µg/mL)
- MIC [25]: 6.3 µM (≈ 27.4 µg/mL)

The next lines start with the values.

- MIC (Bacillus megaterium Bm11): 1.03 µM (≈ 1.9 µg/mL)
- MIC [1]: 0.533 µM (≈ 0.98 µg/mL)
- MIC [2]: 4.24 µM (≈ 7.8 µg/mL)
- MIC (Escherichia coli D21): 2.12 µM (≈ 3.9 µg/mL)
- MIC [3]: 4.24 µM (≈ 7.8 µg/mL)
- MIC [4]: 4.24 µM (≈ 7.8 µg/mL)
- MIC (Micrococcus luteus Ml11): 5.44 µM (≈ 9.99 µg/mL)
- MIC [5]: 1.06 µM (≈ 1.95 µg/mL)
SMILES: CC[C@H](C)[C@H](NC(=O)[C@@H]1CCCN1C(=O)[C@H](CCCN=C(N)N)NC(=O)[C@@H]1CCCN1C(=O)[C@H](CCCN=C(N)N)NC(=O)[C@H](Cc1ccc(O)cc1)NC(=O)[C@H](CC(N)=O)NC(=O)[C@@H]1CCCN1C(=O)[C@H](CCCN=C(N)N)NC(=O)[C@@H]1CCCN1C(=O)[C@@H](N)CCCN=C(N)N)C(=O)N[C@@H](Cc1ccc(O)cc1)C(=O)N[C@@H](CCCN=C(N)N)C(=O)N1CCC[C@H]1C(N)=O [RPRPNYRPRPIYRP]

- MIC (Escherichia coli LEC001): 3.06 µM (≈ 8 µg/mL)
- MIC [27]: 1.53 µM (≈ 4 µg/mL)
- MIC [28]: > 49 µM
- MIC [29]: 12.2 µM (≈ 32 µg/mL)
- MIC [30]: 1.53 µM (≈ 4 µg/mL)
- MIC [31]: 24.5 µM (≈ 64 µg/mL)
- MIC (Escherichia coli): 12.5 µM (≈ 32.7 µg/mL)
- MIC (Staphylococcus aureus): 6 µM (≈ 15.7 µg/mL)
- MIC [32]: 3.06 µM (≈ 8 µg/mL)
- MIC (Klebsiella pneumoniae M6): 12.2 µM (≈ 32 µg/mL)
- MIC [33]: 1.53 µM (≈ 4 µg/mL)
- MIC [34]: 3.06 µM (≈ 8 µg/mL)
- MIC [35]: 3.06 µM (≈ 8 µg/mL)
SMILES: CC[C@H](C)[C@H](NC(=O)[C@H](CCCCN)NC(=O)[C@H](CC(C)C)NC(=O)[C@H](C)NC(=O)[C@H](C)NC(=O)[C@H](CCCCN)NC(=O)[C@H](CC(C)C)NC(=O)[C@H](C)NC(=O)[C@H](CCCCN)NC(=O)CNC(=O)[C@H](CC(C)C)NC(=O)[C@H](Cc1ccccc1)NC(=O)[C@H](CO)NC(=O)CNC(=O)[C@H](Cc1ccccc1)NC(=O)CN)C(=O)NCC(=O)N[C@@H](C)C(=O)N[C@@H](CC(N)=O)C(=O)N[C@H](C(=O)N[C@@H](CC(C)C)C(=O)NCC(=O)NCC(=O)N[C@@H](C)C(=O)N1CCC[C@H]1C(=O)N[C@@H](CCC(N)=O)C(=O)N[C@@H](CCC(N)=O)C(=O)O)C(C)C [GFGSFLGKALKAALKIGANVLGGAPQQ]
